Test results as given in patent US8633245B2, “PAI-1 inhibitor” (Institute of Medicinal Molecular Design, Inc., priority 2008, dated 2014).

Target: T1, recombinant human PAI-1 (Homo sapiens, UniProt P05121)
T1 construct: purchased Molecular Innovations, Inc
Experiment: Test Example 1: human PAI-1 inhibitory activity (tPA fluorogenic substrate, pH 7.5 Tris buffer)
Assay type: biochemical
Conditions: Tris buffer
Protocol: 50 mM Tris, 150 mM NaCl, 10 μg/ml BSA, 0.01% Tween80 (SIGMA-ALDRICH Corporation)

T1 sequence (P05121 24-402): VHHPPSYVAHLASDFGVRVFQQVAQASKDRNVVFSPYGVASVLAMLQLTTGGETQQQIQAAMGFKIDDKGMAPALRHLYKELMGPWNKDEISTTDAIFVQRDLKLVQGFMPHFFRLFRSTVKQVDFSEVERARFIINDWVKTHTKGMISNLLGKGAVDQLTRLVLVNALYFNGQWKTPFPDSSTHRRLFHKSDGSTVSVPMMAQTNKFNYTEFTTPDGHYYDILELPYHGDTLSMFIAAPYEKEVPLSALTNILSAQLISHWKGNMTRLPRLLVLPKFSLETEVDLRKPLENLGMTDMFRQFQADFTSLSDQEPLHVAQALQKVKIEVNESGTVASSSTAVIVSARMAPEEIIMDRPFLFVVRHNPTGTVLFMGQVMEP

Compound	Inhibition Rate of PAI-1 Activity (%) (Compound Concentration 5 μM)	Inhibition Rate of PAI-1 Activity (%) (Compound Concentration 10 μM)	Inhibition Rate of PAI-1 Activity (%) (Compound Concentration 25 μM)
CC(C)(C)c1ccc(-c2ccc(OCc3ccccc3)c(CCC(=O)O)c2)cc1 [Compound 48]	20	50	93
CC(C)(C)c1ccc(-c2ccc(OCc3ccc(OC(F)(F)F)cc3)c(/C=C/C(=O)O)c2)cc1 [Compound 51]	32	69	94
CC(C)(C)c1ccc(-c2ccc(OCc3ccc(OC(F)(F)F)cc3)c(CCC(=O)O)c2)cc1 [Compound 52]	28	64	94
O=C(O)CCc1cc(-c2ccccc2)ccc1OCc1ccc(OC(F)(F)F)cc1 [Compound 53]	19	32	74
COc1ccccc1-c1ccc(OCc2ccc(C(C)(C)C)cc2)c(/C=C/C(=O)O)c1 [Compound 55]	21	46	95
COc1ccccc1-c1ccc(OCc2ccc(C(C)(C)C)cc2)c(CCC(=O)O)c1 [Compound 56]	22	47	91
O=C(O)/C=C/c1cc(-c2ccc(OC(F)(F)F)cc2)ccc1OCc1cccc(C(F)(F)F)c1 [Compound 57]	24	53	82
O=C(O)CCc1cc(-c2ccc(OC(F)(F)F)cc2)ccc1OCc1cccc(C(F)(F)F)c1 [Compound 58]	22	53	97
Cc1cc(C)cc(COc2ccc(-c3ccc(OC(F)(F)F)cc3)cc2CCC(=O)O)c1 [Compound 59]	25	53	77
COc1ccc(COc2ccc(-c3ccc(OC(F)(F)F)cc3)cc2CCC(=O)O)cc1 [Compound 60]	15	35	25
Cc1ccc(COc2ccc(-c3ccc(OC(F)(F)F)cc3)cc2CCC(=O)O)cc1 [Compound 61]	21	48	97
O=C(O)CCc1cc(-c2ccc(OC(F)(F)F)cc2)ccc1OCc1ccc(OC(F)(F)F)cc1 [Compound 62]	29	62	99
CC(C)(C)c1ccc(COc2ccc(-c3cccc(OC(F)(F)F)c3)cc2/C=C/C(=O)O)cc1 [Compound 63]	38	72	93
CC(C)(C)c1ccc(COc2ccc(-c3cccc(OC(F)(F)F)c3)cc2CCC(=O)O)cc1 [Compound 64]	49	74	95
CC(C)(C)c1ccc(COc2ccc(-c3ccccc3OC(F)(F)F)cc2/C=C/C(=O)O)cc1 [Compound 65]	42	72	93
CC(C)(C)c1ccc(COc2ccc(-c3ccccc3OC(F)(F)F)cc2CCC(=O)O)cc1 [Compound 66]	52	80	>99
CC(C)(C)c1ccc(-c2ccc(OCc3ccccc3OC(F)(F)F)c(CCC(=O)O)c2)cc1 [Compound 67]	37	70	94
CC(C)(C)c1ccc(-c2ccc(OCc3cccc(OC(F)(F)F)c3)c(CCC(=O)O)c2)cc1 [Compound 68]	40	74	95
CC(C)(C)c1ccc(-c2ccc(OCc3ccc(C(F)(F)F)cc3)c(CCC(=O)O)c2)cc1 [Compound 70]	47	71	95
CCCCc1ccc(COc2ccc(-c3ccc(C(C)(C)C)cc3)cc2CCC(=O)O)cc1 [Compound 71]	51	80	93
CC(C)c1ccc(Oc2ccc(/C=C/C(=O)O)c(Oc3ccc(C(C)C)cc3)c2)cc1 [Compound 72]	32	72	98

More lines, now with the values ahead:

Inhibition Rate of PAI-1 Activity (%) (Compound Concentration 5 μM)	Inhibition Rate of PAI-1 Activity (%) (Compound Concentration 10 μM)	Inhibition Rate of PAI-1 Activity (%) (Compound Concentration 25 μM)	Compound
13	53	96	CC(C)c1ccc(Oc2ccc(/C=C\C(=O)O)c(Oc3ccc(C(C)C)cc3)c2)cc1 [Compound 74]
25	53	91	CC(C)(C)c1ccc(COc2cc(-c3ccc(OC(F)(F)F)cc3)ccc2/C=C/C(=O)O)cc1 [Compound 75]
27	51	73	CC(C)(C)c1ccc(COc2cc(Oc3ccc(OC(F)(F)F)cc3)ccc2/C=C/C(=O)O)cc1 [Compound 77]
39	84	90	CC(C)(C)c1ccc(Oc2cc(-c3ccc(OC(F)(F)F)cc3)ccc2/C=C/C(=O)O)cc1 [Compound 79]
28	63	70	COc1cc(-c2ccc(OC(F)(F)F)cc2)cc(/C=C/C(=O)O)c1OCc1ccc(C(C)(C)C)cc1 [Compound 81]
26	59	98	COc1cc(-c2ccc(OC(F)(F)F)cc2)cc(CCC(=O)O)c1OCc1ccc(C(C)(C)C)cc1 [Compound 82]
27	46	56	Cc1cc(-c2ccc(OC(F)(F)F)cc2)cc(/C=C/C(=O)O)c1OCc1ccc(C(C)(C)C)cc1 [Compound 83]
28	62	95	Cc1cc(-c2ccc(OC(F)(F)F)cc2)cc(CCC(=O)O)c1OCc1ccc(C(C)(C)C)cc1 [Compound 84]
40	61	85	CC(C)(C)c1ccc(COc2cccc(Oc3ccc(OC(F)(F)F)cc3)c2/C=C/C(=O)O)cc1 [Compound 85]
44	81	96	CC(C)(C)c1ccc(COc2c(/C=C/C(=O)O)cccc2-c2ccc(OC(F)(F)F)cc2)cc1 [Compound 87]
46	87	95	CC(C)(C)c1ccc(Oc2cc(Oc3ccc(OC(F)(F)F)cc3)ccc2/C=C/C(=O)O)cc1 [Compound 89]
